Experimental data published in ChEMBL document CHEMBL1150079, “Oxygenated Clerosterols Isolated from the Marine Alga Codium arabicum” (1995).
Converted amounts (≈) assume the structure as drawn.

Assays:
Assay type in all cases: functional
P388 = experiment: Cytotoxicity against mouse P388 cells after 3 days by MTT assay; conditions: P388, 72 h, read-out: ED50 (the source's name)
KB = experiment: Cytotoxicity against human KB cells after 3 days by MTT assay; conditions: 72 h, read-out: ED50 (the source's name)
A549 = experiment: Cytotoxicity against human A549 cells after 6 days by MTT assay; conditions: A549, 144 h, read-out: ED50 (the source's name)
HT-29 = experiment: Cytotoxicity against human HT-29 cells after 6 days by MTT assay; conditions: HT-29, 144 h, read-out: ED50 (the source's name)

Row | SMILES | EC50 (P388) | EC50 (KB) | EC50 (A549) | EC50 (HT-29)
1 | C=C(C)[C@@H](CC)CC[C@@H](C)[C@H]1CC[C@H]2[C@@H]3C[C@@H](O)C4=CC(=O)CC[C@]4(C)[C@H]3CC[C@]12C | 0.7 µg/mL (≈ 1.64 µM) | 1.3 µg/mL (≈ 3.05 µM) | 2.1 µg/mL (≈ 4.92 µM) | 0.3 µg/mL (≈ 0.703 µM)
2 | C=C(C)[C@@H](CC)CC[C@@H](C)[C@H]1CC[C@H]2[C@@H]3C=C[C@@]4(OO)C[C@@H](O)CC[C@]4(C)[C@H]3CC[C@]12C | 0.5 µg/mL (≈ 1.12 µM) | 1 µg/mL (≈ 2.25 µM) | 1.1 µg/mL (≈ 2.47 µM) | 0.9 µg/mL (≈ 2.02 µM)
3 | C=C(C)[C@@H](CC)CC[C@@H](C)[C@H]1CC[C@H]2[C@@H]3[C@H](O)C=C4C[C@@H](O)CC[C@]4(C)[C@H]3CC[C@]12C | 0.2 µg/mL (≈ 0.467 µM) | 1.1 µg/mL (≈ 2.57 µM) | 0.5 µg/mL (≈ 1.17 µM) | 0.6 µg/mL (≈ 1.4 µM)
4 | C=C(C)[C@@H](CC)CC[C@@H](C)[C@H]1CC[C@H]2[C@@H]3[C@H](OO)C=C4C[C@@H](O)CC[C@]4(C)[C@H]3CC[C@]12C | 0.4 µg/mL (≈ 0.899 µM) | 1 µg/mL (≈ 2.25 µM) | 0.5 µg/mL (≈ 1.12 µM) | 1 µg/mL (≈ 2.25 µM)
5 | C=C(C)[C@@H](CC)CC[C@@H](C)[C@H]1CC[C@H]2[C@@H]3CC=C4C[C@@H](O)CC[C@]4(C)[C@H]3CC[C@]12C [CLEROSTEROL] | 1.7 µg/mL (≈ 4.12 µM) | > 50 µg/mL | 0.3 µg/mL (≈ 0.727 µM) | 43.1 µg/mL (≈ 104 µM)
6 | C=C(C)[C@@H](CC)CC[C@@H](C)[C@H]1CC[C@H]2[C@@H]3C(=O)C=C4C[C@@H](O)CC[C@]4(C)[C@H]3CC[C@]12C | 0.8 µg/mL (≈ 1.87 µM) | 1 µg/mL (≈ 2.34 µM) | 1.2 µg/mL (≈ 2.81 µM) | 2 µg/mL (≈ 4.69 µM)
